From ChEMBL document CHEMBL1135508, “Synthesis, SAR, and biological evaluation of oximino-piperidino-piperidine amides. 1. Orally bioavailable CCR5 receptor antagonists with potent anti-HIV activity” (J Med Chem, 2002)

Assays:
Rattus norvegicus = test: Area under curve value at 0-6 hr in rat pharmacokinetic screening after 10 mg/kg peroral dose; type: ADME, organism-based; parameters: time < 6 hr, dose 10 mg/kg, route oral; settings: in vivo, po
U-87 MG = test: Concentration required to inhibit the entry of HIV-1 reporter virus (ADA) into U-87 cells by 50%; type: functional, cell-based, U-87MG ATCC
[1] = target: T1, Muscarinic acetylcholine receptor M2 (Homo sapiens, UniProt P08172); test: Inhibitory activity against Muscarinic acetylcholine receptor M2
T1 sequence (P08172 whole entry): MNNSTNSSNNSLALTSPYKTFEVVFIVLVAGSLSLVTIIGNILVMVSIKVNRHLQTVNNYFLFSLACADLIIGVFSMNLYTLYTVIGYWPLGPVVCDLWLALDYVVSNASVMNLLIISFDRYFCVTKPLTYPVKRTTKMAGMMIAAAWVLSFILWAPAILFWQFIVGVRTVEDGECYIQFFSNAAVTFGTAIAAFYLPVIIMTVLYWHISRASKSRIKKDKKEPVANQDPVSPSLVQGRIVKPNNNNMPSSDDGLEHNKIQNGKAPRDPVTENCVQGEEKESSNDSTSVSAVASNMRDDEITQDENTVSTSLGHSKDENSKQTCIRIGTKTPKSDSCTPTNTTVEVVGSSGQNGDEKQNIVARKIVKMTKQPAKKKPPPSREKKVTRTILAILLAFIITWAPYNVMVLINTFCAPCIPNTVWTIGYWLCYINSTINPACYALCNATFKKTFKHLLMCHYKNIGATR

[2] = Percent of bioavailability after oral administration at the dose 2/2 (IV/Po/mg/kg); type: ADME, organism-based; settings: cercopithecidae, in vivo, 2 mg/kg, read-out: Bioavailabiility
[3] = Percent of Absorption after IV administration at the dose 2/2 (IV/Po/mg/kg); type: ADME, organism-based; settings: cercopithecidae, in vivo, 2 mg/kg, read-out: Absorption
[4] = Percent of Absorption after IV administration at the dose 10/10 (IV/Po/mg/kg); type: ADME, organism-based; settings: in vivo, 10 mg/kg, read-out: Absorption
[5] = T max after oral administration at the dose 2/2 (IV/Po/mg/kg); type: ADME, organism-based; settings: cercopithecidae, in vivo, 2 mg/kg
[6] = Plasma clearance after IV administration at the dose 2/2 (IV/Po/mg/kg); type: ADME, organism-based; settings: cercopithecidae, 2 mg/kg
[7] = Half life (t 1/2) after IV administration at the dose 10/10 (IV/Po/mg/kg); type: ADME, organism-based; settings: in vivo, 10 mg/kg
[8] = C max after oral administration at the dose 2/2 (IV/Po/mg/kg); type: ADME, organism-based; settings: cercopithecidae, in vivo, 2 mg/kg
[9] = Half life (t 1/2) after IV administration at the dose 2/2 (IV/Po/mg/kg); type: ADME, organism-based; settings: cercopithecidae, in vivo, 2 mg/kg
[10] = Percent of bioavailability after oral administration at the dose 10/10 (IV/Po/mg/kg); type: ADME, organism-based; settings: in vivo, 10 mg/kg, read-out: Bioavailabiility
[11] = C max after oral administration at the dose 10/10 (IV/Po/mg/kg); type: ADME, organism-based; settings: in vivo, 10 mg/kg
[12] = T max after oral administration at the dose 10/10 (IV/Po/mg/kg); type: ADME, organism-based; settings: in vivo, 10 mg/kg
[13] = Plasma clearance after IV administration at the dose 10/10 (IV/Po/mg/kg); type: ADME, organism-based; settings: 10 mg/kg

Structure (SMILES) | AUC (Rattus norvegicus) | IC50 (U-87 MG; Homo sapiens, U-87 MG) | further results
CO/N=C(\c1ccc(Br)cc1)C1CCN(C2(C)CCN(C(=O)c3c(C)cc[n+]([O-])c3C)CC2)CC1 | 2400 ng·h/mL | 5.6 nM | 
Cc1cccc(C)c1C(=O)N1CCC(C)(N2CCC(C(=O)c3ccc(Br)cc3)CC2)CC1 |  | 12 nM | 
Cc1cccc(C)c1C(=O)N1CCC(C)(N2CCC(Cc3ccc(Br)cc3)CC2)CC1 | 40 ng·h/mL | 10 nM | Ki [1]: 1320 nM
Cc1cccc(C)c1C(=O)N1CCC(C)(N2CCC(Cc3ccc(Cl)cc3)CC2)CC1 |  | 23 nM | 
COc1ccc(CC2CCN(C3(C)CCN(C(=O)c4c(C)cccc4C)CC3)CC2)cc1 |  | 26 nM | 
Cc1cccc(C)c1C(=O)N1CCC(C)(N2CCC(Cc3ccc(I)cc3)CC2)CC1 |  | 9 nM | 
Cc1cccc(C)c1C(=O)N1CCC(C)(N2CCC(/C(=N/O)c3ccc(Br)cc3)CC2)CC1 |  | 10 nM | 
CCO/N=C(\c1ccc(S(C)(=O)=O)cc1)C1CCN(C2(C)CCN(C(=O)c3c(C)cc[n+]([O-])c3C)CC2)CC1 | 0 ng·h/mL |  | 
CO/N=C(\c1ccc(Br)cc1)C1CCN(C2(C)CCN(C(=O)c3c(C)cccc3O)CC2)CC1 | 3000 ng·h/mL | 4 nM | 
CNC(=O)CO/N=C(\c1ccc(Br)cc1)C1CCN(C2(C)CCN(C(=O)c3c(C)cccc3C)CC2)CC1 |  | 4.4 nM | 
CO/N=C(\c1ccc(OC(F)(F)F)cc1)C1CCN(C2(C)CCN(C(=O)c3c(C)cc[n+]([O-])c3C)CC2)CC1 | 3300 ng·h/mL | 5.1 nM | 
Cc1cccc(C)c1C(=O)N1CCC(C)(N2CCC(Cc3ccc(S(C)(=O)=O)cc3)CC2)CC1 |  | 7 nM | 
COc1ccc(S(=O)(=O)c2ccc(CC3CCN(C4CCN(C(=O)c5ccc(F)c6ccccc56)CC4)CC3)cc2)cc1 |  |  | Ki [1]: 1.3 nM
Cc1cccc(C)c1C(=O)N1CCC(C)(N2CCC(Cc3ccccc3Br)CC2)CC1 |  | 1300 nM | 
CCO/N=C(\c1ccc(Br)cc1)C1CCN(C2(C)CCN(C(=O)c3c(C)cc(C)nc3O)CC2)CC1 |  | 6.4 nM | 
Cc1ccc(CC2CCN(C3(C)CCN(C(=O)c4c(C)cccc4C)CC3)CC2)cc1 |  | 38 nM | 
Cc1cccc(C)c1C(=O)N1CCC(C)(N2CCC(Cc3cccc(Br)c3)CC2)CC1 |  | 41 nM | 
CO/N=C(/c1ccc(Br)cc1)C1CCN(C2(C)CCN(C(=O)c3c(C)cccc3C)CC2)CC1 | 1200 ng·h/mL | 2.8 nM | 
Cc1cccc(C)c1C(=O)N1CCC(C)(N2CCC(Cc3ccc(OC(F)(F)F)cc3)CC2)CC1 |  | 5 nM | 
CCO/N=C(\c1ccc(OC(F)(F)F)cc1)C1CCN(C2(C)CCN(C(=O)c3c(C)cc[n+]([O-])c3C)CC2)CC1 | 3000 ng·h/mL | 1.8 nM | 
CCO/N=C(\c1ccc(Br)cc1)C1CCN(C2(C)CCN(C(=O)c3c(F)cccc3C(F)(F)F)CC2)CC1 | 2700 ng·h/mL | 2.1 nM | 
Cc1cccc(C)c1C(=O)N1CCC(C)(N2CCC(C(O)c3ccc(Br)cc3)CC2)CC1 (stereo unspecified) |  | 76 nM | 
CCO/N=C(/c1ccc(Br)cc1)C1CCN(C2(C)CCN(C(=O)c3c(C)cccc3C)CC2)CC1 |  | 9.2 nM | 
Cc1cccc(C)c1C(=O)N1CCC(C)(N2CCC(/C(=N/OC(C)(C)C)c3ccc(Br)cc3)CC2)CC1 |  | 5.7 nM | 
CO/N=C(\c1ccc(Br)cc1)C1CCN(C2(C)CCN(C(=O)c3c(C)cccc3C)CC2)CC1 (stereo in doubt) | 2100 ng·h/mL |  | IC50 (U-87 MG; u-87mg atcc): 1.4 nM

The next lines start with results.

AUC (Rattus norvegicus) | IC50 (U-87 MG; Homo sapiens, U-87 MG) | Structure (SMILES) | further results
620 ng·h/mL | 0.6 nM | CO/N=C(\c1ccc(Br)cc1)C1CCN(C2(C)CCN(C(=O)c3c(N)cccc3Cl)CC2)CC1 | 
2100 ng·h/mL | 0.2 nM | CCO/N=C(\c1ccc(Br)cc1)C1CCN(C2(C)CCN(C(=O)c3c(C)ccnc3C)CC2)CC1 | 
2200 ng·h/mL | 1.3 nM | CCO/N=C(\c1ccc(C(F)(F)F)cc1)C1CCN(C2(C)CCN(C(=O)c3c(C)cc[n+]([O-])c3C)CC2)CC1 | 
 | 1 nM | Cc1cccc(C)c1C(=O)N1CCC(C)(N2CCC(Cc3ccc(C(F)(F)F)cc3)CC2)CC1 | 
590 ng·h/mL | 1 nM | C=C(c1ccc(Br)cc1)C1CCN(C2(C)CCN(C(=O)c3c(C)cccc3C)CC2)CC1 | 
1700 ng·h/mL | 1.7 nM | Cc1cccc(C)c1C(=O)N1CCC(C)(N2CCC(/C(=N/OC(C)C)c3ccc(Br)cc3)CC2)CC1 | 
1300 ng·h/mL | 0.5 nM | CO/N=C(\c1ccc(Br)cc1)C1CCN(C2(C)CCN(C(=O)c3c(C)cccc3N)CC2)CC1 | 
210 ng·h/mL | 0.9 nM | CCO/N=C(\c1ccc(Br)cc1)C1CCN(C2(C)CCN(C(=O)c3c(C)cc(O)nc3C)CC2)CC1 | 
3200 ng·h/mL | 1.7 nM | CCO/N=C(\c1ccc(Br)cc1)C1CCN(C2(C)CCN(C(=O)c3c(C)ccc[n+]3[O-])CC2)CC1 | 
350 ng·h/mL | 1.1 nM | CO/N=C(\c1ccc(C(F)(F)F)cc1)C1CCN(C2(C)CCN(C(=O)c3c(C)cc[n+]([O-])c3C)CC2)CC1 | 
1900 ng·h/mL | 0.5 nM | CO/N=C(\c1ccc(Br)cc1)C1CCN(C2(C)CCN(C(=O)c3c(C)ccnc3C)CC2)CC1 | 
1000 ng·h/mL | 1.1 nM | CCO/N=C(\c1ccc(Br)cc1)C1CCN(C2(C)CCN(C(=O)c3c(C)cccc3C)CC2)CC1 | 
1700 ng·h/mL | 1.4 nM | CCO/N=C(\c1ccc(Cl)cc1)C1CCN(C2(C)CCN(C(=O)c3c(C)cc[n+]([O-])c3C)CC2)CC1 | 
 | 1.4 nM | CCO/N=C(\c1ccc(Br)cc1)C1CCN(C2(C)CCN(C(=O)c3cccnc3C)CC2)CC1 | 
1400 ng·h/mL | 1.2 nM | CO/N=C(\c1ccc(Br)cc1)C1CCN(C2(C)CCN(C(=O)c3c(C)cccc3C)CC2)CC1 (stereo in doubt; 14c (Z)) | 
6500 ng·h/mL | 0.6 nM | CCO/N=C(\c1ccc(Br)cc1)C1CCN(C2(C)CCN(C(=O)c3c(C)cc[n+]([O-])c3C)CC2)CC1 [ANCRIVIROC] | bioavailability [2]: 52%; Fa [3]: 80%; Fa [4]: 57%; Tmax [5]: 2 h; clearance [6]: 4.28 mL/min/kg; half-life [7]: 5.4 h; Cmax [8]: 760 nM; half-life [9]: 6 h; bioavailability [10]: 63%; Cmax [11]: 2500 nM; Tmax [12]: 0.5 h; clearance [13]: 12.8 mL/min/kg
